The source of these data is PubChem BioAssay AID1312 (NMMLSC, 2008).

The assay concerns S. cerevisiae Sic1-GFP degradation, flow cytometry time course. Description: degradation of ubiquitination-site mutant Sic1-GFP in yeast, confirmation, mechanism study for 26S proteasome disassembly project, flow cytometry, Sic1MUS mutant, S. cerevisiae (AID 1312).

Active and inactive are the calls of the source.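 Rule for the calls: active = area under the green fluorescent protein level over time curve over 15% above untreated cells; inactive = the rest.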 Peptide text beside a SMILES is read from it. * marks the point of attachment. Cbz = O=C(OCc1ccccc1)*

Regarding `CC(=O)N1C(=O)C(=C2C=C(C)OC(C)=C2)c2ccccc21`, the outcome is “active; degradation inhibitor”. With `CC(C)C[C@@H](C=O)NC(=O)[C@H](CC(C)C)NC(=O)[C@H](CC(C)C)NC(=O)OCc1ccccc1` (Cbz-Leu-Leu-Leu-aldehyde) the entry was “inactive”.
